We go through 30 molecules from patent US20040009973A1, “Novel potassium channels modulators” (4SC AG, priority 2002, published 2004).

For the experiment, the target named is T1, BK potassium channel, cloned hSlo (α-hSlo and β-bSlo) in CHO cells (Homo sapiens, UniProt Q12791).
T1 construct: expressed in transfected cells; host or cells: CHO cells, permanently transfected
Put plainly: Em-Assay: membrane potential with voltage sensitive dye DiBAC(4)3, fluorescence plate reader. Format: cell-based. Particulars: compound 50 μM; NS004 25 or 50 μM; hSlo transfected CHO cells; change in DiBAC(4)3 fluorescence intensity. The text has this: The large conductance, voltage-dependent and Ca^2+-activated potassium channel BK is a potassium selective ion channel and belongs to the subfamily of KCa channels. Four BK alpha-subunits form a functional channel that can be regulated by intracellular Ca^2+ concentration, membrane voltage, and other mechanisms like phosphorylation states or beta subunits. To test the biological activity of the compounds, we applied two different techniques, a fluorescence based assay using a voltage sensitive dye (Em-Assay) as well as exploiting electrophysiological methods.
CHO cells permanently transfected with cloned hSlo (α-hSlo and β-bSlo), yielding typical BK potassium currents (Zhou et al., Pflügers Arch., 436: 725-734 (1998), were used for the evaluation of compound activity. Activation or inhibition of BK channels in these cells leads to a change of the electrochemical gradient causing a hyperpolarized or depolarised membrane potential, respectively.
To determine changes in the membrane potential of the cells we used the voltage sensitive dye DiBAC(4)3 (Molecular Probes) in a kinetic assay system using a fluorescent plate reader (Manning and Sontheimer, J. Neurosci, Meth., 91: 73-81 (1999). The anionic bis-oxonol DiBAC(4)3 is a voltage sensitive dye which partitions from the extracellular environment into the cell where it reversibly binds to intracellular proteins, a kinetic process depending on the membrane potential of the cell. At depolarised potentials (i.e. at a reduced K^+ efflux due to blocked K^+ channels) the dye accumulates in the cell leading to an increased fluorescence intensity, due to its increased fluorescence if bound to cellular proteins. At hyperpolarized potentials (i.e. at an increased K^+ efflux due to the opening of K^+ channels), the dye partitions out of the cell causing a decreased fluorescence intensity.
hSlo transfected CHO cells where maintained in DMEM supplemented with 10% FCS, 250 μg/ml Geneticin, 100 μg/ml Hygromycin, 1×HT-Supplement, and 1×Non-essential Amino Acids and cultured in a humidified CO2 incubator. After trypsination, cells where plated with a density of 5×10^4 cells per well on a clear 96-well plate and incubated for 24 h. Cells where washed once with PBS, once with PBS containing 20 mM HEPES (adjusted to pH 7.4 with NaOH) and 2 μM DIBAC(4)3 (DPBS-DiBAC solution). 180 μl of the dPBS-DiBAC solution was then added to the cells and the plate incubated for 30-60 min at 37° C. During this time the dye could partition into the cells and reach a certain steady-state distribution, depending on the resting membrane potential. Test and reference compounds were stored as DMSO stock solutions and diluted in dPBS-DiBAC solution to the desired concentration.
Fluorescence intensity (Ex.: 485 nm/Em.: 520 nm) of each well was detected in the plate reader (Fluostar, BMG) every 60 seconds. After recording the baseline fluorescence for 7 minutes, 20 μl test—and reference compounds were added and the fluorescence intensity was detected for additional 15 minutes. Background was subtracted, data values were normalized and expressed as a change in fluorescence intensity against time. The change in fluorescence intensity caused by the test compounds was evaluated, compared to the effect of the reference compound NS004, and the ratio was determined (see Table I).

T1 sequence (Q12791 1-1178 isoform Q12791-5): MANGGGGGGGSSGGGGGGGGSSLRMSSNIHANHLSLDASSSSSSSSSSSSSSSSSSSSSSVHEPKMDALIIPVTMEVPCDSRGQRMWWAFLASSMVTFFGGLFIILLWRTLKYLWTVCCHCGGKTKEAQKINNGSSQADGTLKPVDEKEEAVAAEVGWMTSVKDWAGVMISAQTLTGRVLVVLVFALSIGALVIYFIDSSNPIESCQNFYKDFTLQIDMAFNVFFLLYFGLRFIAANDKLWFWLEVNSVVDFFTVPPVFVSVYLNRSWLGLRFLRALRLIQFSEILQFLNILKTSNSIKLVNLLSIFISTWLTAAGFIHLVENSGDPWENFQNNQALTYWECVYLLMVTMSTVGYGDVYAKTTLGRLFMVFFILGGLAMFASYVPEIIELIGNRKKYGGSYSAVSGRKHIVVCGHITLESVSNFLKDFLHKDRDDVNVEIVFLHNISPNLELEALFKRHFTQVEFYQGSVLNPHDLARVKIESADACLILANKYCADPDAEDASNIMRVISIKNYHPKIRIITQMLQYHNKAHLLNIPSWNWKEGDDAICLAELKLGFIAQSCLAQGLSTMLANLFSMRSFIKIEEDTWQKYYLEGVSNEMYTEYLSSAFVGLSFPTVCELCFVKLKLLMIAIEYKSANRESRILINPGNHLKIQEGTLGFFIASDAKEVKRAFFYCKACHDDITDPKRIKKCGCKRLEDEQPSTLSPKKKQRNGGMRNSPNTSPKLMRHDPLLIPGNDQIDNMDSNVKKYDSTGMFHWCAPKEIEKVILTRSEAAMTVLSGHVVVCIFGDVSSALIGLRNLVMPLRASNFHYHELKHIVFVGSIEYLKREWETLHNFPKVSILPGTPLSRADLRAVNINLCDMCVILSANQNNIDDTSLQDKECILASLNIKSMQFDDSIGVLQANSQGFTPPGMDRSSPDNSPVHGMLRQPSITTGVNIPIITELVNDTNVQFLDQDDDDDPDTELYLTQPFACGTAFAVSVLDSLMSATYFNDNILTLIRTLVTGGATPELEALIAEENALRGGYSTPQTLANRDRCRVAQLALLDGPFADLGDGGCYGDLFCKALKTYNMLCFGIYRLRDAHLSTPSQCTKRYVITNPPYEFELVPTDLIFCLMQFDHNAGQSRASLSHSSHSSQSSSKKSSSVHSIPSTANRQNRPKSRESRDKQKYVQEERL
T1 sequence (Q28067 2-191 partner limits assumed): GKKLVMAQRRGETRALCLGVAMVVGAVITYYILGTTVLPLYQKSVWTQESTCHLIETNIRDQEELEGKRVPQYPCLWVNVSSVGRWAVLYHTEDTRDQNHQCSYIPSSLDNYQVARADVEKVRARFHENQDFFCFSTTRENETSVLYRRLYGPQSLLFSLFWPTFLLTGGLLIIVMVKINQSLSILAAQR

With `Fc1cccc(F)c1CNc1cccc(NCc2csc3ccc(Cl)cc23)c1` [Compound 49, N-(5-chlorobenzo[b]thiophen-3-ylmetbyl)-N′-(2,6-difluorobenzyl)-benzene-1,3-diamine], the “Em effect: ratio of the compound effect compared to the maximal effect of NS004” value (“Em effect: ratio of the compound effect” below) was “+ (0-1 = +)”.

As to `CS(=O)(=O)c1ccc(CNc2cccc(NCc3c(F)cccc3F)c2)cc1` [Compound 50, N-(2,6-difluorobenzyl)-N′-(4-methanesulfonylbenzyl)-benzene-1,3-diamine], the “Em effect: ratio of the compound effect” value is “+ (0-1 = +)”.

As for `CS(=O)(=O)c1ccc(CNc2cccc(NCc3cc(F)cc(F)c3)c2)cc1` [Compound 51, N-(3,5-difluorobenzyl)-N′-(4-methanlesulfonylbenzyl)-benzene-1,3-diamine], the “Em effect: ratio of the compound effect” value is reported as “+ (0-1 = +)”.

In the case of `Fc1ccc(CNc2cccc(NCc3ccc(-c4csnn4)cc3)c2)c(F)c1` [Compound 52, N-(2,4-difluorobenzyl)-N′-(4-[1,2,3]thiadiazol-4-yl-benzyl)-benzene-1,3-diamine], the “Em effect: ratio of the compound effect” value is “+ (0-1 = +)”.

Turning to `Fc1cc(F)cc(CNc2cccc(NCc3ccc(-c4csnn4)cc3)c2)c1` [Compound 53, N-(3,5-difluorobenzyl)-N′-(4-[1,2,3]thiadiazol-4-yl-benzyl)-benzene-1,3-diamine], the “Em effect: ratio of the compound effect” value is “+ (0-1 = +)”.

Regarding `O=[N+]([O-])c1ccc(CNc2cccc(NCc3ccc(F)cc3F)c2)o1` [Compound 54, N-(2,4-difluorobenzyl)-N′-(5-nitrofuran-2-ylmethyl)-benzene1,3-diamine], the “Em effect: ratio of the compound effect” value is listed as “+ (0-1 = +)”.

In the case of `Fc1ccc(CNc2cccc(NCc3cccc(Cl)c3)c2)c(F)c1` [Compound 55, N-(3-chlorobenzyl)-N′-(2,4-difluorobenzyl)-benzene-1,3-diamine], the “Em effect: ratio of the compound effect” value is reported as “+ (0-1 = +)”.

For `COc1cccc(CNc2cccc(NCc3csc4ccc(Cl)cc34)c2)c1` [Compound 56, N-(5-chlorobenzo[b]thiophen-3-ylmethyl)-N′-(3-methoxybenzyl)-benzene-1,3diamine], the “Em effect: ratio of the compound effect” value is given as “+ (0-1 = +)”.

Turning to `Fc1cccc(F)c1CNc1cccc(NCc2cccc(Cl)c2)c1` [Compound 57, N-(3-chlorobenzyl)-N′-(2,6-difluorobenzyl)-benzene-1,3-diamine], the “Em effect: ratio of the compound effect” value is recorded as “+ (0-1 = +)”.

Regarding `COc1cccc(CNc2cccc(NCc3cccc(Cl)c3)c2)c1` [Compound 58, N-(3-chlorobenzyl)-N′-(3-methoxybenzyl)-benzene-1,3-diamine], the “Em effect: ratio of the compound effect” value was “+ (0-1 = +)”.

For the molecule `COc1cccc(CNc2cccc(NCc3ccc(-c4csnn4)cc3)c2)c1` [Compound 59, N-(3-methoxybenzyl)-N′-(4-[1,2,3]thiadiazol-4-yl-benzyl)-benzene-1,3-diamine], the “Em effect: ratio of the compound effect” value is on record as “+ (0-1 = +)”.

As for `Fc1cccc(CNc2cccc(NCc3csc4ccc(Cl)cc34)c2)c1` [Compound 60], the “Em effect: ratio of the compound effect” value is “+ (0-1 = +)”.

For the molecule `FC(F)(F)c1ccccc1CNc1cccc(NCc2ccc(-c3csnn3)cc2)c1` [Compound 61, N-(4-[1,2,3]thiadiazol-4-yl-benzyl)-N′-(2-tri-fluoromethylbenzyl)-benzene-1,3-diamine], the “Em effect: ratio of the compound effect” value is given as “+ (0-1 = +)”.

As to `FC(F)(F)c1ccccc1CNc1cccc(NCc2csc3ccc(Cl)cc23)c1` [Compound 62], the “Em effect: ratio of the compound effect” value is recorded as “+ (0-1 = +)”.

Consider `CS(=O)(=O)c1ccc(CNc2cccc(NCc3ccccc3C(F)(F)F)c2)cc1` [Compound 63, N-(4-methanesulfonylbenzyl)-N′-(2-tri-fluoromethylbenzyl)-benzene-1,3-diamine], for which the “Em effect: ratio of the compound effect” value was “+ (0-1 = +)”.

Turning to `Fc1ccc(CNc2cccc(NCc3csc4ccc(Cl)cc34)c2)c(Cl)c1` [Compound 64, N-(5-chlorobenzo[b]thiophen-3-ylmethyl)-N′-(2-chloro-4-fluorobenzyl)-benzene-1,3-diamine], the “Em effect: ratio of the compound effect” value is recorded as “+ (0-1 = +)”.

For the molecule `CS(=O)(=O)c1ccc(CNc2cccc(NCc3ccc(F)cc3Cl)c2)cc1` [Compound 65, N-(2-chloro-4-fluorobenzyl)-N′-(4-methanesulfonylbenzyl)-benzene-1,3-diamine], the “Em effect: ratio of the compound effect” value was “+ (0-1 = +)”.

For `Fc1ccc(CNc2cccc(NCc3cccc(Cl)c3)c2)c(Cl)c1` [Compound 66], the “Em effect: ratio of the compound effect” value is “+ (0-1 = +)”.

With `COc1cccc(CNc2cccc(NCc3ccc(F)cc3Cl)c2)c1` [Compound 67], the “Em effect: ratio of the compound effect” value is listed as “+ (0-1 = +)”.

`N#Cc1cccc(CNc2cccc(NCc3ccc(C(F)(F)F)cc3)c2)c1` [Compound 68]: the “Em effect: ratio of the compound effect” value is recorded as “+ (0-1 = +)”.

`Fc1ccc(CNc2cc(NCc3ccc(F)cc3F)cc(C(F)(F)F)c2)c(F)c1` [Compound 69]: the “Em effect: ratio of the compound effect” value was “+ (0-1 = +)”.

For `FC(F)(F)c1ccc(CNc2cc(NCc3ccc(C(F)(F)F)cc3)cc(C(F)(F)F)c2)cc1` [Compound 70, 5-trifloromethyl-N,N′-bis-(4-trifluoromethylbenzyl)-benzene-1,3-diamine], the “Em effect: ratio of the compound effect” value was “+ (0-1 = +)”.

On to `N#Cc1ccccc1-c1ccc(CNc2cc(NCc3ccc(-c4ccccc4C#N)cc3)cc(C(F)(F)F)c2)cc1` [Compound 73], for which the “Em effect: ratio of the compound effect” value is “+ (0-1 = +)”.

Regarding `FC(F)(F)c1cc(NCc2ccccc2Cl)cc(NCc2ccccc2Cl)c1` [Compound 75], the “Em effect: ratio of the compound effect” value is reported as “+ (0-1 = +)”.

With `COc1cccc(CNc2cc(NCc3cccc(OC)c3)cc(C(F)(F)F)c2)c1` [Compound 76, N,N′-bis-(3-methoxybenzyl)-5-trifluoromethylbenzene-1,3-diamine], the “Em effect: ratio of the compound effect” value is on record as “+ (0-1 = +)”.

As for `CC(C)(C)c1ccc(CNc2cc(NCc3ccc(C(C)(C)C)cc3)cc(C(F)(F)F)c2)cc1` [Compound 77, N,N′-bis-(4-tert-butylbenzyl)-5-trifluoromethylbenzene-1,3-diamine], the “Em effect: ratio of the compound effect” value is listed as “+ (0-1 = +)”.

Regarding `CC(C)(C)c1ccc(CNc2cc(NCc3csc4ccc(Cl)cc34)cc(C(F)(F)F)c2)cc1` [Compound 78], the “Em effect: ratio of the compound effect” value was “+ (0-1 = +)”.

For the molecule `CC(C)(C)c1ccc(CNc2cc(NCc3ccc(-c4csnn4)cc3)cc(C(F)(F)F)c2)cc1` [Compound 79, N-(4-tert-butylbenzyl)-N′-(4-[1,2,3]thiadiazol-4-yl-benzyl)-5-tri-fluoromethylbenzene-1,3-diamine], the “Em effect: ratio of the compound effect” value is recorded as “+ (0-1 = +)”.

Regarding `Fc1cc(F)cc(CNc2cc(NCc3csc4ccc(Cl)cc34)cc(C(F)(F)F)c2)c1` [Compound 80], the “Em effect: ratio of the compound effect” value is “+ (0-1 = +)”.

Regarding `COc1cccc(CNc2cc(NCc3csc4ccc(Cl)cc34)cc(C(F)(F)F)c2)c1` [Compound 81], the “Em effect: ratio of the compound effect” value is reported as “+ (0-1 = +)”.
